From patent US20080279781A1, “Glycosylated Carboranylporphyrins and Uses Thereof” (Brookhaven Science Associates, LLC, priority 2007, published 2008)

Assays:
[1] = test system: tumors; settings: in vivo; cited from earlier work
[2] = test system: EMT-6 mammary carcinomas; assay: Biodistribution of porphyrins in mice bearing EMT-6 carcinomas (boron by DCP-AES); type: in vivo, BALB/c mice; settings: n = 5; for Average boron concentration, EMT-6 Tumor: wet tissue
Procedure: (§1) Porphyrin compounds (VII, XII, XXIII) were emulsified in 3% Cremophor EL and 6% propylene glycol in saline.
(§2) To prepare a solution of ˜3.5 mg/mL porphyrin in 3% Cremophor EL (CRM) and 6% propylene glycol (PRG), the porphyrin was dissolved in tetrahydrofuran (THF) (1.5% of the total volume) and then heated to 40° C. for 15 min. CRM (3% of total volume) was then added and the mixture was heated to 60° C. for 2 hours, which removed most of the THF. After cooling to room temperature, PRG (6% of total volume) was added, followed by slow dropwise addition of saline (89.5% of total volume) with rapid stirring. The solution was degassed by stirring under vacuum (˜30 mm Hg) for 30-60 min and then filtered (Millipore, 8 μm).
(§3) BALB/c mice bearing subcutaneously implanted EMT-6 mammary carcinomas implanted on the dorsal thorax were given a total dose of 200-230 milligrams porphyrin compound (VII or XII) per kilogram body weight (32-37 mg B/kg). Mice were given six intraperitoneal injections over a 2-day period with 3 injections per day at 4-hour intervals. At one and two days after the last injection, mice were euthanized, and tumor, blood, brain, and liver were removed for boron analyses by direct current-plasma-atomic-emission spectrometry (DCP-AES). The blood was first analyzed for hematologic parameters that indicate toxicity before it was analyzed for boron.

[3] = Weight changes and hematologic parameters in mice bearing EMT-6 carcinomas; type: in vivo, BALB/c mice; settings: median (range), 5 mice
Procedure: as §3

[4] = test system: SCCVII squamous cell carcinomas; assay: Biodistribution of porphyrins in mice bearing SCCVII squamous cell carcinomas; type: in vivo, C3H mice; settings: for Average boron concentration, SCCVII Tumor: wet tissue
Procedure: as §1, §2
(§4) C3H mice bearing subcutaneously implanted SCCVII squamous cell carcinomas implanted on the dorsal thorax were given a total dose of 450 milligrams porphyrin compound VII per kilogram body weight (70 mg B/kg) via 6 i.p. injections given over a period of 2 days (3/day over 8 hours). Mice were given porphyrin XXIII at a total dose of 160 mg/kg (36 mg/kg B) via 3 i.p. injections given over a period of 8 hours. At one and two days after the last injection, mice were euthanized, and tumor, blood, brain, and liver were removed for boron analyses. The blood was first analyzed for hematologic parameters that indicate toxicity before it was analyzed for boron.

[5] = Weight changes and hematologic parameters in mice bearing SCCVII carcinomas; type: in vivo, C3H mice; settings: for % Weight change / Granulocytes / Lymphocytes / Platelets: median (range)
Procedure: as §4

[6] = 230 mg/kg (37 mg B/kg) in 6 i.p. injections over 2 days, 1 d after last injection
[7] = 230 mg/kg (37 mg B/kg) in 6 i.p. injections over 2 days, 2 d after last injection
[8] = 230 mg/kg i.p., 1 d after last injection
[9] = 230 mg/kg i.p., 2 d after last injection
[10] = 450 mg/kg (70 mg B/kg) in 6 i.p. injections over 2 days, 1 d after last injection, 5 mice
[11] = 450 mg/kg (70 mg B/kg) i.p., 1 d after last injection, 5 mice
[12] = 200 mg/kg (32 mg B/kg) in 6 i.p. injections over 2 days, 1 d after last injection
[13] = 200 mg/kg (32 mg B/kg) in 6 i.p. injections over 2 days, 2 d after last injection
[14] = 200 mg/kg i.p., 1 d after last injection
[15] = 200 mg/kg i.p., 2 d after last injection
[16] = 160 mg/kg (36 mg B/kg in title, 160/39 in table) in 3 i.p. injections over 8 hours, 1 d after last injection, 4 mice
[17] = 160 mg/kg (36 mg B/kg in title, 160/39 in table) in 3 i.p. injections over 8 hours, 2 d after last injection, 4 mice
[18] = 180 mg/kg (39 mg B/kg) per table title, 160 mg/kg in text, i.p., 1 d after last injection, 4 mice
[19] = 180 mg/kg (39 mg B/kg) per table title, 160 mg/kg in text, i.p., 2 d after last injection, 4 mice

N[C@@H](Cc1ccc(B(O)O)cc1)C(=O)O [BPA, p-boronophenylalanine]
chemical toxicity [1]: low chemical toxicity

Copper (II) meso-5,15-bis[3-(o-carboranylmethoxy)phenyl]-10,20-bis[3-(β-D-galactose)phenyl]porphyrin [Porphyrin XII]
Average boron concentration, Blood [2, 6]: 0.4 ± 0.1 μg B/g | Average boron concentration, Brain [2, 6]: 0.0 ± 0.1 μg B/g | Average boron concentration, Liver [2, 6]: 473 ± 102 μg B/g | Average boron concentration, Blood [2, 7]: 0.2 ± 0.1 μg B/g | Average boron concentration, Brain [2, 7]: 0.0 ± 0.1 μg B/g | Average boron concentration, Liver [2, 7]: 354 ± 352 μg B/g | Average boron concentration, EMT-6 Tumor [2, 6]: 16.7 ± 8.3 μg B/g | Average boron concentration, EMT-6 Tumor [2, 7]: 12.6 ± 5.2 μg B/g | % Weight change [3, 8]: 1.2 (−3.5-4.8) % | Granulocytes [3, 8]: 61 (38-71) % WBC | Lymphocytes [3, 8]: 36 (26-59) % WBC | Platelets [3, 8]: 962 (944-1306) 10^3/mm^3 | % Weight change [3, 9]: 3.4 (−2.2-4.8) % | Granulocytes [3, 9]: 43 (34-76) % WBC | Lymphocytes [3, 9]: 54 (22-63) % WBC | Platelets [3, 9]: 797 (736-877) 10^3/mm^3

copper (II) meso-5,15-bis[3-(o-carboranylmethoxy)phenyl]-10,20-bis[3-(β-D-glucosyl)phenyl]porphyrin [Porphyrin VII]
Average boron concentration, Blood [4, 10]: 1.0 ± 0.1 µg/g | Average boron concentration, Brain [4, 10]: 0.3 ± 0.1 µg/g | Average boron concentration, Liver [4, 10]: 787 ± 70 µg/g | Average boron concentration, SCCVII Tumor [4, 10]: 29.1 ± 7.9 µg/g | % Weight change [5, 11]: −1.2 (−2.6-1.9) % | Granulocytes [5, 11]: 46 (41-50) % WBC | Lymphocytes [5, 11]: 50 (46-56) % WBC | Platelets [5, 11]: 739 (628-751) 10^3/mm^3 | thrombocytopenia ([5]; very high dose of 450 mg/kg): no thrombocytopenia | Average boron concentration, Blood [2, 12]: 0.4 ± 0.1 μg B/g | Average boron concentration, Brain [2, 12]: 0.0 ± 0.0 μg B/g | Average boron concentration, Liver [2, 12]: 457 ± 74 μg B/g | Average boron concentration, Blood [2, 13]: 0.2 ± 0.0 μg B/g | Average boron concentration, Brain [2, 13]: 0.0 ± 0.0 μg B/g | Average boron concentration, Liver [2, 13]: 492 ± 83 μg B/g | Average boron concentration, EMT-6 Tumor [2, 12]: 20.2 ± 6.3 μg B/g | Average boron concentration, EMT-6 Tumor [2, 13]: 19.0 ± 5.4 μg B/g | % Weight change [3, 14]: −0.18 (−5.6-4.7) % | Granulocytes [3, 14]: 49 (43-61) % WBC | Lymphocytes [3, 14]: 47 (37-54) % WBC | Platelets [3, 14]: 504 (111-783)* 10^3/mm^3 | % Weight change [3, 15]: 3.5 (−1.5-3.9) % | Granulocytes [3, 15]: 45 (40-54) % WBC | Lymphocytes [3, 15]: 52 (44-56) % WBC | Platelets [3, 15]: 935 (840-1039) 10^3/mm^3

copper (II) meso-5,15-bis[m-(3,5-di-o-carboranylmethoxybenzyloxy)phenyl]-10,20-bis[3-(β-D-glucosyl)phenyl]porphyrin [Porphyrin XXIII]
Average boron concentration, Blood [4, 16]: 0.6 ± 0.1 µg/g | Average boron concentration, Brain [4, 16]: 0.1 ± 0.0 µg/g | Average boron concentration, Liver [4, 16]: 540 ± 32 µg/g | Average boron concentration, Blood [4, 17]: 0.3 ± 0 µg/g | Average boron concentration, Brain [4, 17]: 0.0 ± 0.0 µg/g | Average boron concentration, Liver [4, 17]: 534 ± 59 µg/g | Average boron concentration, SCCVII Tumor [4, 16]: 16.9 ± 2.6 µg/g | Average boron concentration, SCCVII Tumor [4, 17]: 14.5 ± 2.9 µg/g | % Weight change [5, 18]: 0.5 (−1.9-3.2) % | Granulocytes [5, 18]: 43 (32-46) % WBC | Lymphocytes [5, 18]: 53 (48-64) % WBC | Platelets [5, 18]: 775 (618-881) 10^3/mm^3 | % Weight change [5, 19]: 3.2 (0.9-6.3) % | Granulocytes [5, 19]: 39 (36-43) % WBC | Lymphocytes [5, 19]: 57 (51-59) % WBC | Platelets [5, 19]: 655 (610-723) 10^3/mm^3 | platelet count in comparison with the control mice ([5]; moderately high dose of 160 mg/kg): did not show any decrease in platelet count
